Experiments:
[1] = Mitchell et al., 1998; Setchell et al., 2003; cited from earlier work
[2] = Solubility in alcohol against temperature (FIG. 2); type: physicochemical; conditions: within the specific temperature range of FIG. 2
Text: FIG. 2 is a diagram showing the solubilities of genistein and daidzein in methanol against temperature.
The first step of the method as described above is extraction. This process of grinding starting materials disrupts their tissue structure to enable the isoflavone fractions more easily extracted by the organic solvent. Then, an organic solvent, preferably ethanol, is used to recover isoflavones based on the high solubilities and steadiness of isoflavones in the selected solvents. […] Ethanol (edible alcohol) is preferred in this invention to ensure the isoflavone product will not endanger human health even with the remains of solvent. The extraction is carried out at a temperature ranging from 40 to 90° C. for 2-24 hrs, with the material ratio (volume:weight) of solvent to flour between 1:1 and 10:1 (mL:g).

In the case of O=c1c(-c2ccc(O)cc2)coc2cc(O)cc(O)c12 [genistein, Genistein], the “biological activities among the twelve soy isoflavones” value [1] is given as “highest biological activities” and the “solubility in alcohol including methanol and ethanol versus temperature” value [2] is given as “increase evidently with increasing temperature”.

Source: patent US7553505B2, “Health care product containing isoflavone aglycones and method of producing the same” (The Hong Kong University of Science and Technology, priority 2006, dated 2009)
